According to PubChem BioAssay (NCI):
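Each compound was tested at five concentrations against cells in 96-well plates for 48 hours. TGI is the concentration that stops growth completely.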

Tests used:
Assay in all cases: DTP human tumour cell line panel, 48 h
786-0 renal = test system: 786-0 renal
A498 renal = test system: A498 renal
A549 NSCLC = test system: A549 NSCLC
ACHN renal = test system: ACHN renal
CAKI-1 renal = test system: CAKI-1 renal
CCRF-CEM leukemia = test system: CCRF-CEM leukemia
COLO 205 colon = test system: COLO 205 colon
DU-145 prostate = test system: DU-145 prostate
EKVX NSCLC = test system: EKVX NSCLC
HCC-2998 colon = test system: HCC-2998 colon
HCT-116 colon = test system: HCT-116 colon
HCT-15 colon = test system: HCT-15 colon
HL-60(TB) leukemia = test system: HL-60(TB) leukemia
HOP-62 NSCLC = test system: HOP-62 NSCLC
HOP-92 NSCLC = test system: HOP-92 NSCLC
HS 578T breast = test system: HS 578T breast
HT29 colon = test system: HT29 colon
IGROV1 ovarian = test system: IGROV1 ovarian
K-562 leukemia = test system: K-562 leukemia
KM12 colon = test system: KM12 colon
LOX IMVI melanoma = test system: LOX IMVI melanoma
M14 melanoma = test system: M14 melanoma
MALME-3M melanoma = test system: MALME-3M melanoma
MCF7 breast = test system: MCF7 breast
MDA-MB-231 breast = test system: MDA-MB-231 breast
MDA-MB-435 = test system: MDA-MB-435
MDA-N = test system: MDA-N
MOLT-4 leukemia = test system: MOLT-4 leukemia
NCI-H226 lung = test system: NCI-H226 lung
NCI-H23 lung = test system: NCI-H23 lung
NCI-H460 lung = test system: NCI-H460 lung
NCI-H522 lung = test system: NCI-H522 lung
NCI/ADR-RES ovarian = test system: NCI/ADR-RES ovarian
OVCAR-3 ovarian = test system: OVCAR-3 ovarian
OVCAR-4 ovarian = test system: OVCAR-4 ovarian
OVCAR-5 ovarian = test system: OVCAR-5 ovarian
OVCAR-8 ovarian = test system: OVCAR-8 ovarian
PC-3 prostate = test system: PC-3 prostate
RPMI-8226 leukemia = test system: RPMI-8226 leukemia
RXF 393 renal = test system: RXF 393 renal
SF-268 CNS = test system: SF-268 CNS
SF-295 CNS = test system: SF-295 CNS
SF-539 CNS = test system: SF-539 CNS
SK-MEL-2 melanoma = test system: SK-MEL-2 melanoma
SK-MEL-28 melanoma = test system: SK-MEL-28 melanoma
SK-MEL-5 melanoma = test system: SK-MEL-5 melanoma
SK-OV-3 ovarian = test system: SK-OV-3 ovarian
SN12C renal = test system: SN12C renal
SNB-19 CNS = test system: SNB-19 CNS
SNB-75 CNS = test system: SNB-75 CNS
SW-620 colon = test system: SW-620 colon
T-47D breast = test system: T-47D breast
TK-10 renal = test system: TK-10 renal
U251 CNS = test system: U251 CNS
UACC-257 melanoma = test system: UACC-257 melanoma
UACC-62 melanoma = test system: UACC-62 melanoma
UO-31 renal = test system: UO-31 renal

Q: With `N/C(=N/N=C/c1cc(Br)cc(Br)c1O)NO` as the compound, how does the TGI (786-0 renal) read?
A: > 40.7 µM

Q: What about the TGI (A498 renal) of the same compound?
A: 16 µM

Q: And the TGI (A549 NSCLC)?
A: 53.7 µM

Q: And the TGI (ACHN renal)?
A: 9.66 µM

Q: What about the TGI (CAKI-1 renal) of the same compound?
A: 2.54 µM

Q: What about the TGI (CCRF-CEM leukemia) of the same compound?
A: 3.26 µM

Q: And the TGI (COLO 205 colon)?
A: 49.8 µM

Q: What about the TGI (DU-145 prostate) of the same compound?
A: > 23.8 µM

Q: What about the TGI (EKVX NSCLC) of the same compound?
A: 75.1 µM

Q: And the TGI (HCC-2998 colon)?
A: > 53.8 µM

Q: And the TGI (HCT-116 colon)?
A: 44 µM

Q: And the TGI (HCT-15 colon)?
A: > 46.6 µM

Q: What about the TGI (HL-60(TB) leukemia) of the same compound?
A: 2.31 µM

Q: What about the TGI (HOP-62 NSCLC) of the same compound?
A: 25.9 µM

Q: And the TGI (HOP-92 NSCLC)?
A: 25.2 µM

Q: What about the TGI (HS 578T breast) of the same compound?
A: > 75.3 µM

Q: And the TGI (HT29 colon)?
A: > 100 µM

Q: What about the TGI (IGROV1 ovarian) of the same compound?
A: 4.66 µM

Q: What about the TGI (K-562 leukemia) of the same compound?
A: 21.5 µM

Q: What about the TGI (KM12 colon) of the same compound?
A: 51.4 µM

Q: And the TGI (LOX IMVI melanoma)?
A: 19.8 µM

Q: What about the TGI (M14 melanoma) of the same compound?
A: 12.3 µM

Q: What about the TGI (MALME-3M melanoma) of the same compound?
A: 17.1 µM

Q: What about the TGI (MCF7 breast) of the same compound?
A: > 89.3 µM

Q: And the TGI (MDA-MB-231 breast)?
A: 40.6 µM

Q: And the TGI (MDA-MB-435)?
A: > 81.2 µM

Q: What about the TGI (MDA-N) of the same compound?
A: > 100 µM

Q: And the TGI (MOLT-4 leukemia)?
A: 5.58 µM

Q: What about the TGI (NCI-H226 lung) of the same compound?
A: 6.54 µM

Q: What about the TGI (NCI-H23 lung) of the same compound?
A: > 80.2 µM

Q: What about the TGI (NCI-H460 lung) of the same compound?
A: 27.5 µM

Q: What about the TGI (NCI-H522 lung) of the same compound?
A: 88.6 µM

Q: And the TGI (NCI/ADR-RES ovarian)?
A: 18.9 µM

Q: And the TGI (OVCAR-3 ovarian)?
A: 13.1 µM

Q: And the TGI (OVCAR-4 ovarian)?
A: 71.4 µM

Q: What about the TGI (OVCAR-5 ovarian) of the same compound?
A: > 100 µM

Q: What about the TGI (OVCAR-8 ovarian) of the same compound?
A: > 25.4 µM

Q: And the TGI (PC-3 prostate)?
A: > 59 µM

Q: What about the TGI (RPMI-8226 leukemia) of the same compound?
A: 15.7 µM

Q: What about the TGI (RXF 393 renal) of the same compound?
A: 53.4 µM

Q: What about the TGI (SF-268 CNS) of the same compound?
A: 8.75 µM

Q: And the TGI (SF-295 CNS)?
A: > 45.9 µM

Q: And the TGI (SF-539 CNS)?
A: > 31.9 µM

Q: What about the TGI (SK-MEL-2 melanoma) of the same compound?
A: 82.9 µM

Q: And the TGI (SK-MEL-28 melanoma)?
A: > 100 µM

Q: What about the TGI (SK-MEL-5 melanoma) of the same compound?
A: 38.5 µM

Q: What about the TGI (SK-OV-3 ovarian) of the same compound?
A: > 47.6 µM

Q: And the TGI (SN12C renal)?
A: 8.8 µM

Q: And the TGI (SNB-19 CNS)?
A: > 80.7 µM

Q: And the TGI (SNB-75 CNS)?
A: > 28.3 µM

Q: What about the TGI (SW-620 colon) of the same compound?
A: > 100 µM

Q: And the TGI (T-47D breast)?
A: 11.2 µM

Q: And the TGI (TK-10 renal)?
A: > 45.6 µM

Q: What about the TGI (U251 CNS) of the same compound?
A: > 100 µM

Q: What about the TGI (UACC-257 melanoma) of the same compound?
A: 99.5 µM

Q: And the TGI (UACC-62 melanoma)?
A: 7.52 µM

Q: What about the TGI (UO-31 renal) of the same compound?
A: 8.4 µM

Q: What does the source list for `Cc1cc2c(c(C)c1O)C(C)(C)CN2C(=O)C(C)(C)C`?
A: TGI (786-0 renal): > 100 µM; TGI (A498 renal): > 100 µM; TGI (A549 NSCLC): > 100 µM; TGI (ACHN renal): > 100 µM; TGI (CCRF-CEM leukemia): > 100 µM; TGI (COLO 205 colon): > 100 µM; TGI (DU-145 prostate): > 100 µM; TGI (EKVX NSCLC): > 100 µM; TGI (HCC-2998 colon): > 100 µM; TGI (HCT-116 colon): > 100 µM; TGI (HCT-15 colon): > 100 µM; TGI (HL-60(TB) leukemia): > 100 µM; TGI (HOP-62 NSCLC): > 100 µM; TGI (HOP-92 NSCLC): 78.5 µM; TGI (HS 578T breast): > 100 µM; TGI (HT29 colon): > 100 µM; TGI (IGROV1 ovarian): > 100 µM; TGI (K-562 leukemia): > 100 µM; TGI (KM12 colon): > 100 µM; TGI (LOX IMVI melanoma): > 100 µM; TGI (M14 melanoma): > 100 µM; TGI (MCF7 breast): > 100 µM; TGI (MDA-MB-231 breast): > 100 µM; TGI (MDA-MB-435): > 100 µM; TGI (MDA-N): > 100 µM; TGI (MOLT-4 leukemia): > 100 µM; TGI (NCI-H226 lung): > 100 µM; TGI (NCI-H23 lung): > 100 µM; TGI (NCI-H460 lung): > 100 µM; TGI (NCI-H522 lung): > 100 µM; TGI (NCI/ADR-RES ovarian): 41.2 µM; TGI (OVCAR-3 ovarian): 28.3 µM; TGI (OVCAR-4 ovarian): > 100 µM; TGI (OVCAR-5 ovarian): > 100 µM; TGI (OVCAR-8 ovarian): > 100 µM; TGI (PC-3 prostate): > 100 µM; TGI (RPMI-8226 leukemia): > 100 µM; TGI (RXF 393 renal): 86.9 µM; TGI (SF-268 CNS): > 100 µM; TGI (SF-295 CNS): > 100 µM; TGI (SF-539 CNS): > 100 µM; TGI (SK-MEL-28 melanoma): > 100 µM; TGI (SK-MEL-5 melanoma): > 100 µM; TGI (SK-OV-3 ovarian): > 100 µM; TGI (SN12C renal): > 100 µM; TGI (SNB-19 CNS): > 100 µM; TGI (SNB-75 CNS): 89.2 µM; TGI (SW-620 colon): > 100 µM; TGI (T-47D breast): > 100 µM; TGI (TK-10 renal): > 100 µM; TGI (U251 CNS): > 100 µM; TGI (UACC-257 melanoma): > 100 µM; TGI (UACC-62 melanoma): > 100 µM; TGI (UO-31 renal): > 100 µM
